From patent publication US20250313535A1, “ALPHA 4 BETA 7 INTEGRIN MODULATORS AND USES THEREOF” (DICE MOLECULES SV, INC., priority 2022, published 2025)

Columns and labels:
α4β7 integrin = α4β7 integrin (Homo sapiens (Human), UniProt P13612+P26010); experiment: Integrin Adhesion Assay: Protocol 1 (MAdCAM-coated plate, RPMI-8866 cells, CellTiter GLO readout); format: cell-based; conditions: integrin adhesion assay; determined by at least one of the assays described (protocol not specified)
In short: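 RPMI-8866 cells (2×10^6 per mL) added with compounds (1% DMSO) to MAdCAM-coated wells blocked in HEPES/NaCl buffer with 1 mM MnCl2, 0.1 mM CaCl2, 1% BSA; 1 h at 37° C, 5% CO2. After four washes, bound cells read by CellTiter GLO luminescence; % inhibition vs DMSO and control wells, 4-parameter fit.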

α4β1 integrin = α4β1 integrin (Homo sapiens (Human), UniProt P05556+P13612); experiment: Integrin Adhesion Assay: Protocol 2 (VCAM-coated plate, Jurkat cells, CellTiter GLO readout); format: cell-based; conditions: determined by at least one of the assays described (protocol not specified)
Description: α4β7 and α4β1 inhibition was evaluated in vitro using at least one of the following procedures:
Integrin Adhesion Assay: Protocol 2
VCAM (R&D Systems, 0.1 ug) was diluted in 50 μL PBS, added to each well of an opaque ELISA plate (Thermo), and incubated overnight at 4° C. Coated plates were washed once with PBS and then blocked with 200 μL of assay buffer (10 mM HEPES, 150 mM NaCl, 1 mM MnCl2, 0.1 mM CaCl2), 1% BSA) for 1 hour at 37° C. and 5% CO2. After incubation, buffer was aspirated from the plates and 50 μL of fresh assay buffer was added. Compounds were added by compounds dispenser (Tecan) and DMSO concentration was normalized to 1% across each plate. 50 μL of Jurkat cells (2×10^6 per mL) were added to each well and the plates were incubated for 1 hour at 37° C. and 5% CO2. After incubation, plates were allowed to cool to RT for 10 minutes before being washed four times in assay buffer by an automated plate washer (BioTek). After washing, 100 μL of a 1:1 mixture of assay buffer and CellTiter GLO 2.0 reagent (Promega) were added to each well. Plates were mixed for 2 minutes at 1000 rpm and then allowed to incubate an additional 10 minutes before reading out luminescence on a Tecan Spark plate reader. Raw data was converted to percent inhibition based on DMSO only and control compound wells, and curves were analyzed by 4-parameter fit within Dotmatics software.

Sequence of α4β1 integrin (P13612 34-1032): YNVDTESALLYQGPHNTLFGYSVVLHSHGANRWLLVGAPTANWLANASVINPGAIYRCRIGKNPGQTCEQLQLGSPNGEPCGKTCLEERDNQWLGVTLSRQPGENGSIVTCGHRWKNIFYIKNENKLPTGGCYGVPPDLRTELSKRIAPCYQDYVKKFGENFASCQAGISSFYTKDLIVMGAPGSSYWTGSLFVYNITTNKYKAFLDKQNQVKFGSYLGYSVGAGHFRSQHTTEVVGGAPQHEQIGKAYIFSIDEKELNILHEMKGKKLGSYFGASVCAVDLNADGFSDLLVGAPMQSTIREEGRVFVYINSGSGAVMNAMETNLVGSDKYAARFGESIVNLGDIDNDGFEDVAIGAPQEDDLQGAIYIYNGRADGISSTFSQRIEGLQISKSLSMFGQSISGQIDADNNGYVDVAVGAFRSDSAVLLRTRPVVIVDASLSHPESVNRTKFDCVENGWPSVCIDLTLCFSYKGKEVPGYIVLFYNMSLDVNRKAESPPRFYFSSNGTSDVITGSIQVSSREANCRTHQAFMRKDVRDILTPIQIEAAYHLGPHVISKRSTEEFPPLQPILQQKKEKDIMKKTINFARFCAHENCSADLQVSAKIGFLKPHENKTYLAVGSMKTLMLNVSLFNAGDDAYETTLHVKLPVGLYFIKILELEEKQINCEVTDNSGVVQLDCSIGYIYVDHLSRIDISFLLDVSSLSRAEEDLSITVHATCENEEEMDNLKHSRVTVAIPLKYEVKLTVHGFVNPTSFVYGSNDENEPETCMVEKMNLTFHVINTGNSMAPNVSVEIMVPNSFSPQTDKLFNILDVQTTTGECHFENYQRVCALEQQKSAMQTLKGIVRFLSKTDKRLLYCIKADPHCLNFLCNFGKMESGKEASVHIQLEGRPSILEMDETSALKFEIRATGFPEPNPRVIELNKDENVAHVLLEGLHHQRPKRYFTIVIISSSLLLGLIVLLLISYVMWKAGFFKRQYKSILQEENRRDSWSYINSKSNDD
Sequence of α4β1 integrin (P05556 21-798): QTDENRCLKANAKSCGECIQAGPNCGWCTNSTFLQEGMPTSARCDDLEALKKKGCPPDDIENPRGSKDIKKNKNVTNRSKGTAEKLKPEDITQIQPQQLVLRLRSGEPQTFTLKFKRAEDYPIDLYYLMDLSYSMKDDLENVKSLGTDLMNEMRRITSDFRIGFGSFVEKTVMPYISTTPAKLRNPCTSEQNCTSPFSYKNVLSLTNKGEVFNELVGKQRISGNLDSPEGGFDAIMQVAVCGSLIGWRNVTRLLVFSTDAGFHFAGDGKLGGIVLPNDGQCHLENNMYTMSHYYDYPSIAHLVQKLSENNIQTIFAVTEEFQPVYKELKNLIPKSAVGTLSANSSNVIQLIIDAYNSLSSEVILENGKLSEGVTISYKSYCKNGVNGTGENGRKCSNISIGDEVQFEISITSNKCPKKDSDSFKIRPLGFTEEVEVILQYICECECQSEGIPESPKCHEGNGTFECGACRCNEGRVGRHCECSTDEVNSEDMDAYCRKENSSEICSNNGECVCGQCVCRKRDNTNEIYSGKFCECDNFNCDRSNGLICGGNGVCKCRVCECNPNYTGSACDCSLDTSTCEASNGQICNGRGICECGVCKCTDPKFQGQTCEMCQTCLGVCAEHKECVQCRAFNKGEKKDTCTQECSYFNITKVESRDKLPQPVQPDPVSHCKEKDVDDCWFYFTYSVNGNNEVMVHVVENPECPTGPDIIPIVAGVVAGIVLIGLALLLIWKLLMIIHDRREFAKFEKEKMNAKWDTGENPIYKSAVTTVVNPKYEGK
Sequence of α4β7 integrin (P13612 34-1032): as the sequence (P13612 34-1032) above
Sequence of α4β7 integrin (P26010 20-798): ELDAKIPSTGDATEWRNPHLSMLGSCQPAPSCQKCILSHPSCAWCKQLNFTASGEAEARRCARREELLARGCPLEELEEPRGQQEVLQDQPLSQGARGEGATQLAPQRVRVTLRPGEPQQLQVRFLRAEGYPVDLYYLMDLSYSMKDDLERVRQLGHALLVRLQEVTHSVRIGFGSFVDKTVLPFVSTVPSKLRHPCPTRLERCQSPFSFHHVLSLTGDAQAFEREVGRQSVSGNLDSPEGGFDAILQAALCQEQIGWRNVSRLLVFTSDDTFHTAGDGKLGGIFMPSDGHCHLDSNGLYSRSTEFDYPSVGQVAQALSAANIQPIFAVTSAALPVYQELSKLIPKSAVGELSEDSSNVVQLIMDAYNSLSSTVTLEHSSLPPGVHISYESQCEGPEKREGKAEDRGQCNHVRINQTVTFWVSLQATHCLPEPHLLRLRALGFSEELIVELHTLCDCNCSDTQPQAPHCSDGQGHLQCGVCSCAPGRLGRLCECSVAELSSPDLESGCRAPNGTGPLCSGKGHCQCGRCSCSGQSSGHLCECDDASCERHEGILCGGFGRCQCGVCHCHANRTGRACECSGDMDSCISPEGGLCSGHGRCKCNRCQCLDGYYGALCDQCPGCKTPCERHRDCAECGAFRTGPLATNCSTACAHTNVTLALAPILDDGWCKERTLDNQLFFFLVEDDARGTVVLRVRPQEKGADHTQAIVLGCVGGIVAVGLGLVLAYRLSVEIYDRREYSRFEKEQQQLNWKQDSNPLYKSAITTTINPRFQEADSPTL

| IC50 (α4β7 integrin) [nM] | IC50 (α4β1 integrin) [nM] | Compound |
| --- | --- | --- |
| 10 to 100 | 100 to 1000 | Cn1ccc(=O)n(-c2cccc3c(C[C@H](NC(=O)c4c(F)cncc4Cl)C(=O)O)cccc23)c1=O [Compound 110] |
| < 10 | 100 to 1000 | Cn1ccc(=O)n(-c2cccc3c(C[C@H](NC(=O)c4c(F)cc(NS(C)(=O)=O)cc4F)C(=O)O)cccc23)c1=O [Compound 111] |
| < 10 | > 1000 | CC[C@@H](Nc1cc(F)c(C(=O)N[C@@H](Cc2cccc3c(-n4c(=O)ccn(C)c4=O)cccc23)C(=O)O)c(F)c1)C(F)(F)F [Compound 112] |
| < 10 | 100 to 1000 | Cc1cc(C(F)(F)F)c(-c2cccc3c(C[C@H](NC(=O)c4c(F)cc(N5CCOC[C@@H]5C(F)(F)F)cc4F)C(=O)O)cccc23)c(=O)n1C [Compound 113] |
| < 10 | > 1000 | Cn1ccc(=O)n(-c2cccc3c(C[C@H](NC(=O)c4c(F)cc(NCC(F)(F)F)cc4F)C(=O)O)cccc23)c1=O [Compound 114] |
| 10 to 100 | 100 to 1000 | Cn1ccc(C(F)(F)F)c(-c2cccc3c(C[C@H](NC(=O)c4c(F)cccc4F)C(=O)O)cccc23)c1=O [Compound 115] |
| 10 to 100 | > 1000 | CN(C)CCc1cc(=O)n(-c2cccc3c(C[C@H](NC(=O)c4c(F)cccc4F)C(=O)O)cccc23)c(=O)n1C [Compound 116] |
| 10 to 100 | > 1000 | CN(C)CCc1cn(C)c(=O)n(-c2cccc3c(C[C@H](NC(=O)c4c(F)cccc4F)C(=O)O)cccc23)c1=O [Compound 117] |
| 10 to 100 | > 1000 | Cn1cc(CCN2CC(F)C2)c(=O)n(-c2cccc3c(C[C@H](NC(=O)c4c(F)cccc4F)C(=O)O)cccc23)c1=O [Compound 118] |
| 10 to 100 | > 1000 | CN(C)CCn1ccc(=O)n(-c2cccc3c(C[C@H](NC(=O)c4c(F)cccc4F)C(=O)O)cccc23)c1=O [Compound 119] |
| 10 to 100 | > 1000 | Cn1ccc(=O)n(-c2cccc3c(C[C@H](NC(=O)c4c(F)ccc(NCC(F)(F)F)c4F)C(=O)O)cccc23)c1=O [Compound 120] |
| 10 to 100 | > 1000 | Cn1ccc(=O)n(-c2cccc3c(C[C@H](NC(=O)c4cc5ncn(CC(F)(F)F)c5cc4F)C(=O)O)cccc23)c1=O [Compound 124] |
| < 10 | 100 to 1000 | Cn1ccc(=O)n(-c2cccc3c(C[C@H](NC(=O)c4c(F)cc5c(cnn5CC(F)(F)F)c4F)C(=O)O)cccc23)c1=O [Compound 126] |
| > 1000 | > 1000 | CNC(=O)[C@@H]1CCN1C(=O)c1ccc2cc(C(=O)N[C@@H](Cc3cccc4c(-n5c(=O)ccn(C)c5=O)cccc34)C(=O)O)ccc2c1 [Compound 127] |
| 100 to 1000 | > 1000 | CNC(=O)[C@@H]1CC[C@H](c2ccccc2)N1C(=O)c1ccc2cc(C(=O)N[C@@H](Cc3cccc4c(-n5c(=O)ccn(C)c5=O)cccc34)C(=O)O)ccc2c1 [Compound 128] |
| < 10 | 100 to 1000 | O=C(N[C@@H](Cc1cccc2c(-c3nccc4ccncc34)cccc12)C(=O)O)c1c(F)cc(N2CCOC[C@@H]2C(F)(F)F)cc1CN1CCOCC1 [Compound 129] |

Second part, the compound before the results:

| Compound | IC50 (α4β7 integrin) [nM] | IC50 (α4β1 integrin) [nM] |
| --- | --- | --- |
| Cn1ccc(=O)n(-c2cccc3c(C[C@H](NC(=O)c4cc(C(=O)N5CCc6ccccc6C5)n(-c5ccccc5)n4)C(=O)O)cccc23)c1=O [Compound 44] | > 1000 | > 1000 |
| Cn1ccc(=O)n(-c2cccc3c(C[C@H](NC(=O)c4cc(C(=O)NCCCCN)n(-c5ccccc5)n4)C(=O)O)cccc23)c1=O [Compound 45] | > 1000 | > 1000 |
| O=C(N[C@@H](Cc1cccc2c(-c3nccc4ccncc34)cccc12)C(=O)O)c1c(F)cc(N2CCOC[C@@H]2CC(F)F)cc1CN1CCOCC1 [Compound 46] | < 10 | > 1000 |
| O=C(N[C@@H](Cc1cccc2c(-c3cccc4ccncc34)cccc12)C(=O)O)c1c(F)cc(N2CCOC[C@@H]2C(F)(F)F)cc1F [Compound 47] | 10 to 100 | > 1000 |
| Cn1ccc(=O)n(-c2cccc3c(C[C@H](NC(=O)c4c(F)cc(N5CCOC[C@@H]5C(F)(F)F)cc4CN4CCCC4)C(=O)O)cccc23)c1=O [Compound 48] | < 10 | 100 to 1000 |
| Cn1ccc(=O)n(-c2cccc3c(C[C@H](NC(=O)c4ccc5cc(C(=O)N6CCC[C@@H]6c6ccccc6)ccc5c4)C(=O)O)cccc23)c1=O [Compound 49] | > 1000 | > 1000 |
| CC(=O)N1CCC(C)(C(=O)N[C@@H](Cc2cccc3c(-n4c(=O)ccn(C)c4=O)cccc23)C(=O)O)CC1 [Compound 50] | 100 to 1000 | > 1000 |
| Cn1ccc(=O)n(-c2cccc3c(C[C@H](NC(=O)C45CCC(CC4)CC5)C(=O)O)cccc23)c1=O [Compound 51] | 100 to 1000 | > 1000 |
| Cn1ccc(=O)n(-c2cccc3c(C[C@H](NC(=O)C45CCC(C)(CC4)CC5)C(=O)O)cccc23)c1=O [Compound 52] | 100 to 1000 | > 1000 |
| Cn1ccc(=O)n(-c2cccc3c(C[C@H](NC(=O)C45C[C@H]6C[C@@H](C4)C[C@@H](C5)C6)C(=O)O)cccc23)c1=O [Compound 53] | 100 to 1000 | > 1000 |
| Cn1ccc(=O)n(-c2cccc3c(C[C@H](NC(=O)C4(C)CCN(C(=O)C(F)F)CC4)C(=O)O)cccc23)c1=O [Compound 55] | 100 to 1000 | > 1000 |
| CCN1CCC(C)(C(=O)N[C@@H](Cc2cccc3c(-n4c(=O)ccn(C)c4=O)cccc23)C(=O)O)C(F)(F)C1 (some centres unmarked) [Compound 56] | 100 to 1000 | > 1000 |
| CC(C)N1CCC(C)(C(=O)N[C@@H](Cc2cccc3c(-n4c(=O)ccn(C)c4=O)cccc23)C(=O)O)CC1 [Compound 57] | 10 to 100 | > 1000 |
| Cn1ccc(=O)n(-c2cccc3c(C[C@H](NC(=O)C4(C)CCN(CC(F)F)CC4)C(=O)O)cccc23)c1=O [Compound 58] | 10 to 100 | > 1000 |
| CC(C)CN1CCC(C)(C(=O)N[C@@H](Cc2cccc3c(-n4c(=O)ccn(C)c4=O)cccc23)C(=O)O)CC1 [Compound 59] | 10 to 100 | > 1000 |
| Cn1ccc(=O)n(-c2cccc3c(C[C@H](NC(=O)C4(C)CCN(C5COC5)CC4)C(=O)O)cccc23)c1=O [Compound 60] | 10 to 100 | > 1000 |
| Cn1ccc(=O)n(-c2cccc3c(C[C@H](NC(=O)C45CCN(CC4)CC5)C(=O)O)cccc23)c1=O [Compound 62] | > 1000 | > 1000 |
| Cn1ccc(=O)n(-c2cccc3c(C[C@H](NC(=O)C4(C)CCC(F)(F)CC4)C(=O)O)cccc23)c1=O [Compound 63] | 10 to 100 | > 1000 |
| Cn1ccc(=O)n(-c2cccc3c(C[C@H](NC(=O)C4(Cc5ccc(F)cc5)CCC(F)(F)CC4)C(=O)O)cccc23)c1=O [Compound 64] | > 1000 | > 1000 |
| Cn1ccc(=O)n(-c2cccc3c(C[C@H](NC(=O)[C@]45C[C@@H]6C[C@H](C4)C(F)(F)[C@@H](C6)C5)C(=O)O)cccc23)c1=O [Compound 65] | 100 to 1000 | 100 to 1000 |
| CCC1(C(=O)N[C@@H](Cc2cccc3c(-n4c(=O)ccn(C)c4=O)cccc23)C(=O)O)CCC(F)(F)CC1 [Compound 66] | 100 to 1000 | > 1000 |
| Cn1c(C(F)(F)F)ccc(-c2cccc3c(C[C@H](NC(=O)c4c(F)cc(N5CCOC[C@@H]5C(F)(F)F)cc4F)C(=O)O)cccc23)c1=O [Compound 67] | < 10 | > 1000 |
| Cn1ccc(=O)n(-c2cccc3c(C[C@H](NCc4c(F)cccc4F)C(=O)O)cccc23)c1=O [Compound 68] | > 1000 | > 1000 |
| Cn1ccc(=O)n(-c2cccc3c(C[C@H](NCc4ccccc4)C(=O)O)cccc23)c1=O [Compound 69] | > 1000 | > 1000 |
| Cn1ccc(=O)n(-c2cccc3c(C[C@H](NCc4ccc(N5CCOCC5)cc4)C(=O)O)cccc23)c1=O [Compound 70] | > 1000 | > 1000 |
| CN([C@H](CCC(=O)O)C(=O)N[C@@H](Cc1cccc2c(-n3c(=O)ccn(C)c3=O)cccc12)C(=O)O)S(=O)(=O)c1ccccc1 [Compound 72] | 100 to 1000 | > 1000 |
| Cn1ccc(=O)n(-c2cccc3c(C[C@H](NC(=O)C(F)(F)Sc4ccc(Cl)cc4Cl)C(=O)O)cccc23)c1=O [Compound 76] | > 1000 | > 1000 |
| Cn1ccc(=O)n(-c2cccc3c(C[C@H](NC(=O)[C@@H]4CCCN4c4ccccc4C#N)C(=O)O)cccc23)c1=O [Compound 79] | 10 to 100 | > 1000 |
| Cn1ccc(C(F)(F)F)c(-c2cccc3c(C[C@H](OCc4c(F)cccc4F)C(=O)O)cccc23)c1=O [Compound 80] | > 1000 | > 1000 |
| Cn1ccc(=O)n(-c2cccc3c(C[C@H](NC(=O)c4c(F)cc(N5CCOC[C@@H]5C(F)(F)F)cc4F)C(=O)O)cccc23)c1=O [Compound 108] | < 10 | 100 to 1000 |
